Here are results for seven molecules from patent publication US12588678B2, “Oxazoline compound, synthesis method therefor and application thereof” (NANKAI UNIVERSITY, priority 2019, dated 2026).

Assay [1] has as its system Tetranychus cinnabarinus mite larvae. The assay is described as follows: Larvicidal activity test, dipping method on bean seedling leaves. Format: in vivo. The following applies: for mortality at 1 µg/mL: read-out: mortality of mite larvae (%), 1 mg/L; for mortality at 10 µg/mL: read-out: mortality of mite larvae (%), 10 mg/L; for mortality at 100 µg/mL: read-out: mortality of mite larvae (%), 100 mg/L; for mortality at 200 µg/mL: read-out: mortality of mite larvae (%), 200 mg/L; for mortality at 0.1 µg/mL: read-out: mortality of mite larvae (%), 0.1 mg/L. The procedure, abridged: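 Leaves bearing mite larvae, hatched from eggs laid over 24 h and grown 5 days at 25° C (≥60 mites per leaf), were dipped 5–6 s in compound solution with Tween. Mortality was scored after 4 days of culture against an additive-only blank. Three replicates per compound.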

Assay [2] deals with Tetranychus cinnabarinus mite eggs. The assay can be described thus: Activity against mite eggs, dipping method on bean seedling leaves. The note with it: Tetranychus cinnabarinus, 96 h, checked after 4 days; for mortality at 1 µg/mL: read-out: mortality of mite eggs (%), 1 mg/L; for mortality at 10 µg/mL: read-out: mortality of mite eggs (%), 10 mg/L; for mortality at 100 µg/mL: read-out: mortality of mite eggs (%), 100 mg/L; for mortality at 200 µg/mL: read-out: mortality of mite eggs (%), 200 mg/L. Format: in vivo. Put shortly: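 Female T. cinnabarinus laid eggs on bean seedling leaves for 24 h at 25° C., adults removed; after 1 day, egg-bearing leaves dipped 5-6 s in test solution. Mortality of eggs scored after 4 further days of greenhouse culture, versus additive-only blank; three replicates per compound.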

Setting [3] is: Tetranychus cinnabarinus, 96 h, checked after 4 days.

Each structure is given as a SMILES string.

Take `O=S(=O)(Oc1ccc(C2COC(c3c(F)cccc3F)=N2)cc1)c1cccc(F)c1` (centres unmarked) [Compound R3-12]: in assay [1] (setting [3]), the mortality at 1 µg/mL was found to be 50%, the mortality at 10 µg/mL is 90%, the mortality at 100 µg/mL came to 100% and the mortality at 200 µg/mL worked out at 100%. In addition, in assay [2], the mortality at 1 µg/mL came to 55%, the mortality at 10 µg/mL was determined as 90%, the mortality at 100 µg/mL came to 100% and the mortality at 200 µg/mL turned out to be 100%.
On to `O=S(=O)(Oc1ccc(C2COC(c3c(F)cccc3F)=N2)cc1)c1ccc(C(F)(F)F)cc1` (centres unmarked) [Compound R3-13], for which, in assay [1] (setting [3]), the mortality at 0.1 µg/mL is 60%, the mortality at 1 µg/mL was found to be 80%, the mortality at 10 µg/mL was found to be 95% and the mortality at 100 µg/mL was 100%. Moreover, the mortality at 200 µg/mL in assay [1] (setting [3]) was determined as 100%. Besides, in assay [2], the mortality at 1 µg/mL turned out to be 70%, the mortality at 10 µg/mL amounted to 90%, the mortality at 100 µg/mL was 100% and the mortality at 200 µg/mL is 100%.
In the case of `O=S(=O)(Oc1ccc(C2COC(c3c(F)cccc3F)=N2)cc1)c1ccc(F)cc1F` (centres unmarked) [Compound R3-14], in assay [1] (setting [3]), the mortality at 0.1 µg/mL was 60%, the mortality at 1 µg/mL is 80%, the mortality at 10 µg/mL was found to be 95% and the mortality at 100 µg/mL came out at 100%. In addition, in assay [1] (setting [3]), the mortality at 200 µg/mL came out at 100%. For the same molecule, in assay [2], the mortality at 1 µg/mL came out at 50%, the mortality at 10 µg/mL worked out at 85%, the mortality at 100 µg/mL was 90% and the mortality at 200 µg/mL was determined as 100%.
Regarding `O=S(=O)(Oc1ccc(C2COC(c3c(F)cccc3F)=N2)cc1)c1ccc(F)c(F)c1F` (centres unmarked) [Compound R3-15], in assay [1] (setting [3]), the mortality at 0.1 µg/mL was 65%, the mortality at 1 µg/mL came to 90%, the mortality at 10 µg/mL was 100% and the mortality at 100 µg/mL worked out at 100%. Further, the mortality at 200 µg/mL in assay [1] (setting [3]) was 100%. Moreover, in assay [2], the mortality at 1 µg/mL came out at 65%, the mortality at 10 µg/mL amounted to 95%, the mortality at 100 µg/mL is 100% and the mortality at 200 µg/mL came to 100%.
Consider `Cc1ccc(S(=O)(=O)Oc2ccc(C3COC(c4c(F)cccc4F)=N3)cc2)cc1` (centres unmarked) [Compound R3-16], for which, in assay [1] (setting [3]), the mortality at 1 µg/mL was determined as 70%, the mortality at 10 µg/mL was determined as 85%, the mortality at 100 µg/mL turned out to be 100% and the mortality at 200 µg/mL is 100%. In addition, in assay [2], the mortality at 1 µg/mL is 50%, the mortality at 10 µg/mL is 70%, the mortality at 100 µg/mL turned out to be 92% and the mortality at 200 µg/mL was 100%.
In the case of `CC(C)(C)c1ccc(S(=O)(=O)Oc2ccc(C3COC(c4c(F)cccc4F)=N3)cc2)cc1` (centres unmarked) [Compound R3-17], the “acaricidal activity compared with etoxazole” value in assay [1] (Tetranychus cinnabarinus eggs and larvae, etoxazole as reference) was “equivalent or better acaricidal activity compared with etoxazole”. In assay [1] (Tetranychus cinnabarinus, 96 h, read-out: mortality of mite larvae (%), 0.01 mg/L, checked after 4 days), the mortality at 0.01 µg/mL is 35%. Further, the mortality at 0.05 µg/mL in assay [1] (Tetranychus cinnabarinus, 96 h, read-out: mortality of mite larvae (%), 0.05 mg/L, checked after 4 days) worked out at 50%. In addition, in assay [1] (setting [3]), the mortality at 0.1 µg/mL stood at 85%, the mortality at 1 µg/mL worked out at 95%, the mortality at 10 µg/mL came out at 100% and the mortality at 100 µg/mL came to 100%. The mortality at 200 µg/mL in assay [1] (setting [3]) was 100%. For the same molecule, in assay [1] (Tetranychus cinnabarinus, 96 h, read-out: mortality of mite larvae (%), 0.5 mg/L, checked after 4 days), the mortality at 0.5 µg/mL was 90%. Also, in assay [2] (read-out: mortality of mite eggs (%), 0.1 mg/L), the mortality at 0.1 µg/mL was 45%. The mortality at 0.5 µg/mL in assay [2] (read-out: mortality of mite eggs (%), 0.5 mg/L) turned out to be 78%. Further, in assay [2], the mortality at 1 µg/mL was found to be 90%, the mortality at 10 µg/mL is 96%, the mortality at 100 µg/mL was 100% and the mortality at 200 µg/mL amounted to 100%.
Consider `O=S(=O)(Oc1ccc(C2COC(c3c(F)cccc3F)=N2)cc1)c1ccc2c(c1)OCCO2` (centres unmarked) [Compound R3-18], for which, in assay [1] (setting [3]), the mortality at 1 µg/mL is 50%, the mortality at 10 µg/mL is 70%, the mortality at 100 µg/mL was 90% and the mortality at 200 µg/mL was 100%. Moreover, in assay [2], the mortality at 10 µg/mL is 50%, the mortality at 100 µg/mL stood at 70% and the mortality at 200 µg/mL is 100%.
